# Data: patent US6403831B1, “Substituted benzylidene indenyl formamides, acetamides and propionamides” (Cell Pathways, Inc., priority 1996, dated 2002)
# Target: T1, COX I (Ovis aries, UniProt P05979)
# T1 construct: The COX was purified form ram seminal vesicles; from tissue; host or cells: ram seminal vesicles
# T1 sequence (P05979 25-600): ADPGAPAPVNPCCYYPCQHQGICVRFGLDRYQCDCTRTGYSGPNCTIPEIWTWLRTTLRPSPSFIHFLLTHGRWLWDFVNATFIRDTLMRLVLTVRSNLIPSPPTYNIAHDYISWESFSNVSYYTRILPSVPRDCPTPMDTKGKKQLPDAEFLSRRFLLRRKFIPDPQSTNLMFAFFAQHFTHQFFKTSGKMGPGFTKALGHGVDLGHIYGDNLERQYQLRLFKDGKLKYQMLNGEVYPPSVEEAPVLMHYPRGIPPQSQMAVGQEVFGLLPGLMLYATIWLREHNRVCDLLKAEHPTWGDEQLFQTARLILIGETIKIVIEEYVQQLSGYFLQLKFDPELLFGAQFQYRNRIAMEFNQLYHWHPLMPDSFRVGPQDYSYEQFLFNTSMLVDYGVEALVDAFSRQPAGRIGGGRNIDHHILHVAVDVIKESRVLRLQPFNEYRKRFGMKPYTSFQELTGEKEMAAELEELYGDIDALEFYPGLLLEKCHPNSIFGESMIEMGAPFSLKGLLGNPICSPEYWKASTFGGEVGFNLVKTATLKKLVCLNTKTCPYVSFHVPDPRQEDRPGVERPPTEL
# Assay: Cyclooxygenase (COX) inhibition, purified COX
# Type: biochemical
# Conditions: 100 μM test compound; purified COX from ram seminal vesicles, arachidonic acid 100 μM
# Method: Compounds of this invention, as well as a positive control, sulindac sulfide were to determine whether they inhibited the production of cyclooxygenase (see Table 5 below).
# COX catalyzes the formation of prostaglandins and thromboxane by the oxidative metabolism of arachidonic acid. The compounds of this invention were evaluated for inhibitory effects on purified COX. The COX was purified form ram seminal vesicles, as described by Boopathy, R. and Balasubramanian, J. 239:371-377, 1988. COX activity was assayed as described by Evans, A. T., et al., “Actions of cannabis constituents on enzymes of arachidonate metabolism anti-flammatory potential,” Biochem. Pharmacol., 36:2035-2037, 1987. Briefly, purified COX was incubated with arachidonic acid (100 μM) for 2.0 min at 37° C. in the presence or absence of test compounds. The assay was terminated buy the addition of TCA, and COX activity was determined by absorbance at 530 nm.
row,COX I % Inhibition (100 μM),SMILES
1,<25%,"COc1cc(/C=C2/C(C)=C(CC(=O)NCC3CC3)c3cc(F)ccc32)cc(OC)c1OC [Example 30, (Z)-5-fluoro-2-methyl-1-(3,4,5-trimethoxybenzylidene)-3-(N-cyclopropylmethyl)-indenylacetamide]"
2,<25%,"COc1cc(/C=C2/C(C)=C(CC(=O)NCc3ccc(F)c(F)c3)c3cc(F)ccc32)cc(OC)c1OC [Example 9, (Z)-5-fluoro-2-methyl-1-(3,4,5-trimethoxybenzylidene)-3-(N-3,4-difluorobenzyl)-indenylacetamide]"
3,<25%,"COc1cc(/C=C2/C(C)=C(CC(=O)NCc3cccc(I)c3)c3cc(F)ccc32)cc(OC)c1OC [Example 2, (Z)-5-fluoro-2-methyl-1-(3,4,5-trimethoxybenzylidene)-3-(N-3-iodobenzyl)-indenylacetamide]"
4,36.5%,"COc1cc(/C=C2/C(C)=C(CC(=O)NCc3ccc(N(C)C)cc3)c3cc(F)ccc32)cc(OC)c1OC [Example 21, (Z)-5-fluoro-2-methyl-1-(3,4,5-trimethoxybenzylidene)-3-(N-4-(dimethylamino)-benzyl)-indenylacetamide]"
5,<25%,"COc1cc(/C=C2/C(C)=C(CC(=O)NCc3cccc(F)c3)c3cc(F)ccc32)cc(OC)c1OC [Example 7, (Z)-5-fluoro-2-methyl-1-(3,4,5-trimethoxybenzylidene)-3-(N-3-fluorobenzyl)-indenylacetamide]"
6,<25%,"COc1ccc(CNC(=O)CC2=C(C)/C(=C/c3cc(OC)c(OC)c(OC)c3)c3ccc(F)cc32)cc1 [Example 14, (Z)-5-fluoro-2-methyl-1-(3,4,5-trimethoxybenzylidene)-3-(N-4-methoxybenzyl)-indenylacetamide]"
7,<25%,"COc1cc(/C=C2/C(C)=C(CC(=O)NCc3c(F)cccc3F)c3cc(F)ccc32)cc(OC)c1OC [Example 10, (Z)-5-fluoro-2-methyl-1-(3,4,5-trimethoxybenzylidene)-3-(N-2,6-difluorobenzyl)-indenylacetamide]"
8,<25%,"COc1ccc(CNC(=O)CC2=C(C)/C(=C/c3cc(OC)c(OC)c(OC)c3)c3ccc(F)cc32)cc1OC [Example 17, (Z)-5-fluoro-2-methyl-1-(3,4,5-trimethoxybenzylidene)-3-(N-3,4-dimethoxybenzyl)-indenylacetamide]"
9,<25%,"COc1cc(/C=C2\C(C)=C(CC(=O)NCc3ccccc3)c3cc(F)ccc32)cc(OC)c1OC [Example 52, (E)-5-Fluoro-2-methyl-1-(3,4,5-trimethoxybenzylidene)-3-(N-benzyl)-indenylacetamide]"
10,25%,"COc1cc(/C=C2/C(C)=C(CC(=O)NC(C)(C)C)c3cc(F)ccc32)cc(OC)c1OC [Example 25, (Z)-5-fluoro-2-methyl-1-(3,4,5-trimethoxybenzylidene)-3-(N-tertbutyl)-indenylacetamide]"
11,<25%,"CCN(CC)C(=O)CC1=C(C)/C(=C/c2cc(OC)c(OC)c(OC)c2)c2ccc(F)cc21 [Example 24, (Z)-5-fluoro-2-methyl-1-(3,4,5 trimethoxybenzylidene)-3-(N,N-diethyl)-indenylacetamide]"
12,<25%,"COc1cc(/C=C2/C(C)=C(CC(=O)NCc3ccco3)c3cc(F)ccc32)cc(OC)c1OC [Example 29, (Z)-5-fluoro-2-methyl-1-(3,4,5-trimethoxybenzylidene)-3-(N-furfuryl)-indenylacetamide]"
13,36.5%,"COc1cc(/C=C2/C(C)=C(CC(=O)NCc3ccc(S(N)(=O)=O)cc3)c3cc(F)ccc32)cc(OC)c1OC [Example 20, (Z)-5-fluoro-2-methyl-1-(3,4,5-trimethoxybenzylidene)-3-(N-4-sulfonamidobenzyl)-indenylacetamide]"
14,28.1%,"COc1cc(/C=C2/C(C)=C(CC(=O)N(C3CCCCC3)C3CCCCC3)c3cc(F)ccc32)cc(OC)c1OC [Example 26, (Z)-5-fluoro-2-methyl-1-(3,4,5-trimethoxybenzylidene)-3-(N,N-dicyc1ohexyl)-indenylacetamide]"
15,<35%,COc1cc(/C=C2/C(C)=C(CC(=O)NCc3cccc(Cl)c3)c3cc(F)ccc32)cc(OC)c1OC [Example 3]
16,<25%,"COc1cc(CNC(=O)CC2=C(C)/C(=C/c3cc(OC)c(OC)c(OC)c3)c3ccc(F)cc32)cc(OC)c1 [Example 16, (Z)-5-fluoro-2-methyl-1-(3,4,5-trimethoxybenzylidene)-3-(N-3,5-dimethoxybenzyl)-indenylacetamide]"
17,<25%,"COc1cc(/C=C2/C(C)=C(CC(=O)NCc3cc(F)cc(C(F)(F)F)c3)c3cc(F)ccc32)cc(OC)c1OC [Example 11, (Z)-5-fluoro-2-methyl-1-(3,4,5-trimethoxybenzylidene)-3-(N-3-fluoro-5-(trifluoromethyl)-benzyl)-indenylacetamide]"
18,<25%,"COc1cccc(CNC(=O)CC2=C(C)/C(=C/c3cc(OC)c(OC)c(OC)c3)c3ccc(F)cc32)c1OC [Example 18, (Z)-5 fluoro-2-methyl-1-(3,4,5-trimethoxybenzylidene)-3-(N-2,3-dimethoxybenzyl)-indenylacetamide]"
19,<25%,"COc1cc(/C=C2/C(C)=C(CC(=O)NCc3ccc(Cl)c(Cl)c3)c3cc(F)ccc32)cc(OC)c1OC [Example 5, (Z)-5-fluoro-2-methyl-1-(3,4,5-trimethoxybenzylidene)-3-(N-3,4-dichlorobenzyl)-indenylacetamide]"

row,SMILES,COX I % Inhibition (100 μM)
1,COc1cc(/C=C2/C(C)=C(CC(=O)NCc3ccncc3)c3cc(F)ccc32)cc(OC)c1OC [Example 50],29.2%
2,"COc1cc(/C=C2/C(C)=C(CC(=O)NCc3ccc(F)cc3F)c3cc(F)ccc32)cc(OC)c1OC [Example 6, (Z)-5-fluoro-2-methyl-1-(3,4,5-trimethoxybenzylidene)-3-(N-2,4-difluorobenzyl)-indenylacetamide]",<25%
3,"COc1cc(/C=C2/C(C)=C(CC(=O)NCc3cccnc3)c3cc(F)ccc32)cc(OC)c1OC [Example 49, (Z)-5 fluoro-2-methyl-1-(3,4,5 trimetboxybenzylidene)-3-(N-3-pyridinyl)-idenylacetamide]",25%
